Measurements reported in publication PMC8745263 (International Journal of Molecular Sciences, 2021).
“Also recorded” adds a separate entry of the source. Read-outs that look alike come from different tables or passages of the source. Blank lines part the entries; values can stand above or below the compound they belong to.

Assays:
[1] = target: T1, APEH (partially purified from human red blood cells) (Homo sapiens, UniProt P13798); assay: APEH enzyme inhibition assay with substrate Ac-Met-AMC; type: biochemical; details: inhibitor 62 µM, APEH sample 0.7 μg, pre-incubated 30 min at 37 °C, then Ac-Met-AMC added; data not shown
T1 construct: incubated with APEH partially purified from human blood cells; from tissue; host or cells: human red blood cells (erythrocyte hemolysate from donors' blood)
T1 sequence (P13798 1-732): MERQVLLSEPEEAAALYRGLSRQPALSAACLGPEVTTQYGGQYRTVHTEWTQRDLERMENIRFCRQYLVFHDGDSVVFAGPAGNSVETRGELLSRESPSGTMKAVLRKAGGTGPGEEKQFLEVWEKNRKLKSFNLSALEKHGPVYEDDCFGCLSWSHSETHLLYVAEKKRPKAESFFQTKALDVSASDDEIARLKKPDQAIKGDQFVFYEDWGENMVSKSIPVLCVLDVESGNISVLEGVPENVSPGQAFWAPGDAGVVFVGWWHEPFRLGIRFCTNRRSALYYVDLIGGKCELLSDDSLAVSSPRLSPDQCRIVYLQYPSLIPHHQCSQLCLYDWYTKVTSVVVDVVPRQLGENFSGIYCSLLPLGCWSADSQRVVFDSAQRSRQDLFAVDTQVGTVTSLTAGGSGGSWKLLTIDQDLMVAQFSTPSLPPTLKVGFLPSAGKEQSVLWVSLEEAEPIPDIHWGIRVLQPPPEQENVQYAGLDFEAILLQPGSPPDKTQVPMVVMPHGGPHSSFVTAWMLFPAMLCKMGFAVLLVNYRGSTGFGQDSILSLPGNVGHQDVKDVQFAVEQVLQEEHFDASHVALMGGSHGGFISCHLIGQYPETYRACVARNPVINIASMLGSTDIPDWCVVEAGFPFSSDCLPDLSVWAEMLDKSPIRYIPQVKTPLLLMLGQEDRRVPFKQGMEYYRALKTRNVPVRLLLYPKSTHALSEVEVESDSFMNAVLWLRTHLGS
Description: Human APEH was obtained as a partially purified product from the red blood cells by a combination of anion exchange and gel filtration chromatography as described. The purification procedure was monitored by SDS-PAGE analysis of active pooled fractions (Supplementary Figure S3). Specifically, each peak fraction eluted from the gel filtration column was assayed with the specific APEH substrate Ac-Met-AMC and analyzed by Western blotting to assess the identity of the enzyme, using the commercial APEH from porcine liver (APEHpl) as control (Supplementary Figure S4A,B). The molecular mass determined by SDS-PAGE of the partially purified protein was 75 kDa, in agreement with that predicted on the basis of the amino acid sequence. Moreover, gel filtration chromatography on Superdex 200 column allowed estimating a molecular mass for the native APEH of […] as calculated by the calibration curve (Supplementary Figure S4A), confirming that the enzyme is a homo-tetramer composed of four 75 kDa subunits, as already reported.
Blood samples were taken from donors using syringes with heparin. […] Enzyme purification was monitored using Ac-Met-7-amino-4-methylcoumarin (AMC) as substrate. Active fractions were analyzed by SDS-PAGE (12%) in order to evaluate the enrichment of the protein during the various purification steps. […]

APEH [2] = assay: APEH partially purified from human blood cells (0.7 μg, 24.000 total units) in Tris-HCl 25 mM pH 7.5; details: 37 °C, up to 48 h
truncated form of APEH = details: cited from earlier work
APEH [3] = details: cited from earlier work

- inhibition of APEH activity [1]: totally inhibited
Compound: CC(C)CC(O)(CC(C)C)c1cnn(C(=O)N2CCCC2)n1 [AA74-1]

Compound: Ac-EYM(ox)FM(ox)QKYPHTHLVQQA-NH2
- cleaved bond (APEH [2]): H59-L60, major; also recorded: Q62-Q; also recorded: L60-V

Compound: Ac-EYMFMQKYPHTHLVQQA-NH2
- not cleaved (APEH [2]): No cleavage was observed; N.D. (not degraded) after 48 h

Compound: GIVEQC(ox)C(ox)ASVC(ox)SLYQLENYC(ox)N
- cleaved bond (truncated form of APEH): A-S and Y-Q

Compound: …^205FGERALKAWSVARL ↓ SQKFPKAEF^227… …^397LGEYGFQNALIVRY ↓ TRKVPQVST^419… …^493DETYVPKAFDEKLF ↓ TFHADICTL^515…
- cleaved bond (APEH [3]): L-S and Y-T and F-T
